Measured values taken from patent US20040010116A1, “Minicell display and products therefrom” (Children's Medical Center Corp., priority 2002, published 2004).
Where no end group is shown, it is not given here.

Experiments:
alpha4 integrin = target: T1, alpha4 integrin (Homo sapiens, UniProt P13612); assay: alpha4 integrin binding
T1 sequence (P13612 34-1032): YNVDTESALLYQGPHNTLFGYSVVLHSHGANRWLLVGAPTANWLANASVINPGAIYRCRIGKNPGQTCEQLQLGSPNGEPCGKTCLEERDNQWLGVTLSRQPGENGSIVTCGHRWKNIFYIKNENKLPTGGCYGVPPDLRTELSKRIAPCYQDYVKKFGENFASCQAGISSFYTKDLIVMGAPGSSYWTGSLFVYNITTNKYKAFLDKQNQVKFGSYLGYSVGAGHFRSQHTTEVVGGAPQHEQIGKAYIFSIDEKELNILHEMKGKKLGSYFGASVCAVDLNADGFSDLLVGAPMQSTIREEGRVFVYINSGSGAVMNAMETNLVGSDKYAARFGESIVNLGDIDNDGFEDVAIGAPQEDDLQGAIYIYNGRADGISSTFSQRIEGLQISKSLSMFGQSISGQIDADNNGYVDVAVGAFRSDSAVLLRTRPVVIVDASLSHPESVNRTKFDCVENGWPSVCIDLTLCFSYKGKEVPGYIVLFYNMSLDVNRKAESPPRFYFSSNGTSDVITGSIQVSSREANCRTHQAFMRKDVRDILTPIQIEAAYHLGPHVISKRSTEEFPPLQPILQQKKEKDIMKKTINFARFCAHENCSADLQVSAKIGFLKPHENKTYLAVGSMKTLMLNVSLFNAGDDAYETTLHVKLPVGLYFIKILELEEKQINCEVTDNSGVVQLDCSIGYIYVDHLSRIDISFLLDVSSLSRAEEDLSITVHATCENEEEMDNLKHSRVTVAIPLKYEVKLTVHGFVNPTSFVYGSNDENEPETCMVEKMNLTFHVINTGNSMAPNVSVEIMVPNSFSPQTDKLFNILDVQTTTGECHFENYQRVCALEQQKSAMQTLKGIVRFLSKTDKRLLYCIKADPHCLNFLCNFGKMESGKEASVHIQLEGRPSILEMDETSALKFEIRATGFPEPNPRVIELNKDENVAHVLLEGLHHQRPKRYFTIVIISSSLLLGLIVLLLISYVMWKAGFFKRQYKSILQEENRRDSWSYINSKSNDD
Description: (§1) Several screening methods were utilized. Most of the methods follow a similar protocol outlined below.
(§2) A tertiary library may be constructed from a third round of screening and those peptides selected may be used in functional screening assays to further isolate peptides of specific activity.

[1] = system: cell/collagen interaction; assay: Cell/collagen interaction; assay type: cell-based
Description: as §1, §2

Heparin binding = assay: Heparin binding
Description: as §1, §2

CD44 = CD44 (Homo sapiens, UniProt P16070); assay: CD44 interaction with GAG; assay type: binding
Description: as §1, §2

tumor cells [2] = assay: Apoptosis of tumor cells; assay type: cell-based
Description: as §1, §2

melanoma cell = assay: Melanoma cell attachment; assay type: cell-based
Description: as §1, §2

[3] = system: neutrophils, endothelium, fibrosarcomas melanoma; assay: Neutrophils, endothelium, fibrosarcomas, melanoma attachment; assay type: cell-based
Description: as §1, §2

cell = assay: Cell entry of peptides; assay type: cell-based
Description: as §1, §2

[4] = Tolerability of the peptide in animals; assay type: in vivo
Experimental: To evaluate that effectiveness of SEQ ID NO: 54 against primary tumor growth and metastasis, 1×10^7 cells were injected subcutaneously into the left flank of nude mice. After six weeks the resulting tumors were aseptically dissected out, minced and 1 mm-tumor pieces were transplanted into the right flank of nude mice using a trocar needle. Two weeks later, when tumors were measured approximately 10 mm, mice were assigned to different experimental groups. One group of 24 animals bearing MDA-MB-231 xenografts were divided into 3 groups that received the following treatments one group of 8 animals received a weekly injection of apoptotic peptide (0.3-100 μg/kg for SEQ ID NO: 54) through the peritoneal cavity. […] Tumors were measured once every two days with microcalipers, and tumor volume was calculated as length×width×height×0.5236. Body weights were measured on the day of the injection, 4 days later and weekly thereafter. […] Total leukocyte and platelet counts were determined manually using a hemocytometer. […] Treatment-related toxicity was evaluated based on the differences in body weight, liver and kidney marker enzymes and the hematological parameters between treatment groups. […] Liver, heart, uterus, ovaries, lungs spinal cord and all long bones were evaluated histologically. […]

tumor cells [5] = assay: Homotypic aggregation of tumor cells; assay type: cell-based
Description: as §1, §2

cell-cell = assay: Cell-cell adhesion; assay type: cell-based
Description: as §1, §2

macrophage = assay: Macrophage recruitment by osteopontin, C5a, fibronectin (activity assay of minicell display peptides); assay type: cell-based
Description: as §1, §2

Endothelial cell = Endothelial cell attachment; assay type: cell-based
Description: as §1, §2

eosinophils = assay: Activation of apoptosis in eosinophils; assay type: cell-based; conditions: versus control
Description: SEQ ID NO: 56 (Acetylated-GRGENPS) activates apoptosis in eosinophils. […] Fibronectin in combination with SEQ ID NO: 56 further increased the percentage of apoptotic cells by roughly 70%.

collagenase = assay: Collagenase induction; assay type: cell-based
Description: as §1, §2

[6] = system: integrin signaling, CD44 signaling, rhoB; assay: Integrin/CD44 signaling and microtubule stabilization in vivo
[7] = Induction of apoptosis and cell death; assay type: cell-based
invasion complex = assay: Invasion complex binding, in vitro studies
Description: SEQ ID NO: 55 ([…] is a peptide derived and modified from a parent peptide isolated using minicell display. The design objective for the parent peptide was to generate a mini protein with the mechanistic advantages of taxol, but devoid of the toxicity and side effects of taxol-type drugs.

fibroblast = assay: Fibroblast attachment; assay type: cell-based
Description: as §1, §2

β integrin = β integrin binding
Description: as §1, §2

Sequence of CD44 (P16070 21-742, species assumed): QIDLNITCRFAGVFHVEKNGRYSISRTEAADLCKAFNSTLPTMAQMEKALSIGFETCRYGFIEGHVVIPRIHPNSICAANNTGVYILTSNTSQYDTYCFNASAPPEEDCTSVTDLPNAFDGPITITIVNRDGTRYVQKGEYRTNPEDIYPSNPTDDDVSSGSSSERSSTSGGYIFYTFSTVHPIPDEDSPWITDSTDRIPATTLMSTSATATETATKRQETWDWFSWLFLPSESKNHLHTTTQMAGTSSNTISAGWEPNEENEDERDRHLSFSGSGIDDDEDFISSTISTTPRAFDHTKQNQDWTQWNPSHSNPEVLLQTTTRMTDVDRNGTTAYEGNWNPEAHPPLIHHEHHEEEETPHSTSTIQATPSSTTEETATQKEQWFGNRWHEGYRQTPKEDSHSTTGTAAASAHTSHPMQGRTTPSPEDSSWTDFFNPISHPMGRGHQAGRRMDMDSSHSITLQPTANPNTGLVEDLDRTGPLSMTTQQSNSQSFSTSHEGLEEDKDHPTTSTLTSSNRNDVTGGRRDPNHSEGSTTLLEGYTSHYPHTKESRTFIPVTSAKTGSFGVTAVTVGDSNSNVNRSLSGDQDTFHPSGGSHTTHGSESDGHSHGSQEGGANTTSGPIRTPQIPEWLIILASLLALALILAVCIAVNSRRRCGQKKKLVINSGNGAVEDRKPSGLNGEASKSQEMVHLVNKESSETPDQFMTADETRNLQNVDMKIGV

Substance: AADVESPS [SEQ ID NO:22]
- FUNCTIONAL ACTIVITY: alpha4 integrin binding (alpha4 integrin): Inhibits alpha4 integrin

Substance: DADQKFGFC [SEQ ID NO:12]
- FUNCTIONAL ACTIVITY: cell/collagen interaction [1]: Inhibits cell/collagen

Substance: DSVAYGLKSK [SEQ ID NO:15]
- FUNCTIONAL ACTIVITY: heparin binding (Heparin binding): Inhibits heparin binding

Substance: YYWRQQQKSDPVVSRRRSPS [SEQ ID NO:44]
- FUNCTIONAL ACTIVITY: CD44 interaction with GAG (CD44): Inhibits CD44 interaction with

Substance: LDSPPAALS [SEQ ID NO:21]
- FUNCTIONAL ACTIVITY: alpha4 integrin binding (alpha4 integrin): Inhibits alpha4 integrin

Substance: DGGRGDSLGWYRRGRGGARRSKAKKAAAKNNQKSEPLIGRKKT [SEQ ID NO:52]
- FUNCTIONAL ACTIVITY: Apoptotic to tumor cells (tumor cells [2]): Apoptotic to tumor cells

Substance: WTGGDDSGSPSSPS [SEQ ID NO:23]
- FUNCTIONAL ACTIVITY: alpha4 integrin binding (alpha4 integrin): Inhibits alpha4 integrin

Substance: ESHQKYGYCGGCDRNNP [SEQ ID NO:13]
- FUNCTIONAL ACTIVITY: cell/collagen interaction [1]: Inhibits cell/collagen

Substance: DRYLKFRPV [SEQ ID NO:38]
- FUNCTIONAL ACTIVITY: melanoma cell attachment (melanoma cell): Inhibits melanoma cell

Substance: KGMNYTVR [SEQ ID NO:40]
- FUNCTIONAL ACTIVITY: neutrophils, endothelium, fibrosarcomas melanoma attachment [3]: Inhibits, neutrophils,

Substance: CVVVLVL [SEQ ID NO: 19]
- FUNCTIONAL ACTIVITY: cell entry of peptides (cell): Promotes cell entry of peptides

Substance: Ac-DKMLDP [SEQ ID NO: 54, DKMLDP]
- Therapeutic index [4]: high
- Tolerability of relatively high doses ([4]; more than ten fold the optimum effective dose): no deleterious effects

Substance: HGRFILPWWYAFSPS [SEQ ID NO:48]
- FUNCTIONAL ACTIVITY: homotypic aggregation of tumor cells (tumor cells [5]): Inhibit homotypic aggregation

Substance: KKGKKSKRS [SEQ ID NO:50]
- FUNCTIONAL ACTIVITY: Anti-adhesion (cell-cell) (cell-cell): Anti-adhesion (cell-cell)

Substance: DSVVYGLRSK [SEQ ID NO:14]
- FUNCTIONAL ACTIVITY: heparin binding (Heparin binding): Inhibits heparin binding

Substance: DSVAYGLKSRSK [SEQ ID NO:16]
- FUNCTIONAL ACTIVITY: heparin binding (Heparin binding): Inhibits heparin binding

Substance: KRSR [SEQ ID NO:53]
- FUNCTIONAL ACTIVITY: Apoptotic to tumor cells (tumor cells [2]): Apoptotic to tumor cells

Substance: VLEP [SEQ ID NO:7]
- FUNCTIONAL ACTIVITY: macrophage recruitment by osteopontin, C5a, fibronectin (macrophage): Inhibitor of macrophage

Substance: DPGYIGSR [SEQ ID NO:41]
- FUNCTIONAL ACTIVITY: endothelial cell attachment (Endothelial cell): Inhibits endothelial cell

Substance: Acetylated-GRGENPS (Ac-GRGENPS) [SEQ ID NO: 56]
- Increase of the percentage of apoptotic cells (eosinophils): roughly 20%

Substance: DRDRAWGYC [SEQ ID NO:10]
- FUNCTIONAL ACTIVITY: cell/collagen interaction [1]: Inhibits cell/collagen

Substance: LVPSSKGRGDYLAQSQP [SEQ ID NO:36]
- FUNCTIONAL ACTIVITY: collagenase induction (collagenase): collagenase induction

Substance: RRSRSSTGKKQKSSQSRKTA [SEQ ID NO:51]
- FUNCTIONAL ACTIVITY: Anti-adhesion (cell-cell) (cell-cell): Anti-adhesion (cell-cell)

Substance: DDDRKWGFC [SEQ ID NO:8]
- FUNCTIONAL ACTIVITY: cell/collagen interaction [1]: Inhibits cell/collagen

Substance: VLPTPTPPGYLSSRSSR [SEQ ID NO:42]
- FUNCTIONAL ACTIVITY: endothelial cell attachment (Endothelial cell): Inhibits endothelial cell

Substance: PYAGRGDSVVYGLKKKNNQKAEPLIGRKKTR [SEQ ID NO: 55]
- Integrin signaling versus CD44 signaling [6]: uncouple integrin signaling from CD44 signaling
- Microtubules ([6]; by down stream activation of rhoB): stabilization of microtubules
- Apoptosis and cell death [7]: induces apoptosis and cell death
- Binding to the invasion complex (invasion complex): binds to the invasion complex

Substance: GRGDNPS [SEQ ID NO:35]
- FUNCTIONAL ACTIVITY: collagenase induction (collagenase): collagenase induction

Substance: DQDQRWGYC [SEQ ID NO:9]
- FUNCTIONAL ACTIVITY: cell/collagen interaction [1]: Inhibits cell/collagen

Substance: DRQWGLC [SEQ ID NO:11]
- FUNCTIONAL ACTIVITY: cell/collagen interaction [1]: Inhibits cell/collagen

Substance: QESPSGTDLLVAGSSP [SEQ ID NO:26]
- FUNCTIONAL ACTIVITY: alpha4 integrin binding (alpha4 integrin): Inhibits alpha4 integrin

Substance: PNGRGESLAY [SEQ ID NO:37]
- FUNCTIONAL ACTIVITY: collagenase induction (collagenase): inhibits collagenase induction
- FUNCTIONAL ACTIVITY: fibroblast attachment (fibroblast): Inhibits fibroblast attachment,

Substance: SDV [SEQ ID NO:24]
- FUNCTIONAL ACTIVITY: alpha4 integrin binding (alpha4 integrin): Inhibits alpha4 integrin

Substance: TPVVPTVDTYDGRGDSLAY [SEQ ID NO:27]
- FUNCTIONAL ACTIVITY: β integrin binding (β integrin): β integrin binding

Substance: fibronectin [reference compound]
- Change of the percentage of apoptotic cells (in words) (eosinophils): decreased the percentage of apoptotic cells

Substance: KKAKKSRRS [SEQ ID NO:49]
- FUNCTIONAL ACTIVITY: Anti-adhesion (cell-cell) (cell-cell): Anti-adhesion (cell-cell)

Substance: LDSAS [SEQ ID NO:20]
- FUNCTIONAL ACTIVITY: alpha4 integrin binding (alpha4 integrin): Inhibits alpha4 integrin

Substance: EPEESDVGGAADYP [SEQ ID NO:25]
- FUNCTIONAL ACTIVITY: alpha4 integrin binding (alpha4 integrin): Inhibits alpha4 integrin

Substance: HKFVHWKKPVLPSQNNQ [SEQ ID NO:39]
- FUNCTIONAL ACTIVITY: melanoma cell attachment (melanoma cell): Inhibits melanoma cell

Substance: KNNQKSEPLIGRKKT [SEQ ID NO:43]
- FUNCTIONAL ACTIVITY: CD44 interaction with GAG (CD44): Inhibits CD44 interaction with
